One block for each compound: values may come before it. The source made the active and inactive calls. The rule behind the calls is not given here.
Assays:
[1] = Prodrug activation in PBS at pH 7.4 assessed as rate of CPT release at 10 uM measured within 10 mins by fluorescence microscopy; settings: buffer, pH 7.4, 10 min
[2] = Prodrug activation in PBS at pH 7.4 assessed as retention time of CPT at 10 uM in presence of 1 mM GSH by LC-MS analysis; settings: buffer, pH 7.4, 10 µM
[3] = Prodrug activation in PBS at pH 7.4 assessed as GSH bis-adduct formation at 10 uM in presence of 1 mM GSH measured 10 mins by LC-MS analysis; settings: buffer, pH 7.4, 10 min
[4] = Prodrug activation in PBS at pH 7.4 assessed as retention time of GSH bis-adduct formation at 10 uM in presence of 1 mM GSH by LC-MS analysis; settings: buffer, pH 7.4, 10 µM
[5] = Prodrug activation in PBS at pH 7.4 assessed as GSH mono-adduct formation at 10 uM in presence of 1 mM GSH measured after 5 mins by LC-MS analysis; settings: buffer, pH 7.4, 5 min
[6] = Prodrug activation in PBS at pH 7.4 assessed as retention time of prodrug at 10 uM in presence of 1 mM GSH by LC-MS analysis; settings: buffer, pH 7.4, 10 µM
[7] = Prodrug activation in human HepG2 cells assessed as CPT release by measuring blue fluorescence at 10 uM incubated upto 30 mins by inverted fluorescence microscopy; assay type: cell-based; settings: hepg2, 0.5 h
[8] = Prodrug activation in PBS at pH 7.4 assessed as CPT release at 10 uM in presence of 1 mM GSH measured after 5 mins by LC-MS analysis; settings: buffer, pH 7.4, 5 min
[9] = Stability of compound in mouse plasma assessed as prodrug remaining at 100 uM measured upto 12 hrs by HPLC analysis; assay type: ADME, cell-free
[10] = Prodrug activation in human HepG2 cells assessed as GSH bis-adduct formation by measuring green fluorescence at 10 uM incubated upto 30 mins by inverted fluorescence microscopy; assay type: cell-based; settings: hepg2, 0.5 h
[11] = Prodrug activation in human HepG2 cells assessed as retention time of prodrug by LC-MS analysis; assay type: cell-based
[12] = Prodrug activation in PBS at pH 7.4 assessed as retention time of GSH mono-adduct formation at 10 uM in presence of 1 mM GSH by LC-MS analysis; settings: buffer, pH 7.4, 10 µM
[13] = Prodrug activation in human HepG2 cells assessed as retention time of GSH bis-adduct formation at 10 uM treated for 1 hr in presence of 1 mM GSH by LC-MS analysis; assay type: cell-based; settings: hepg2, 1 h
[14] = Prodrug activation in human HepG2 cells assessed as retention time of CPT by LC-MS analysis; assay type: cell-based
[15] = Prodrug activation in PBS at pH 7.4 assessed as CPT release at 10 uM measured within 30 mins by fluorescence microscopy; settings: buffer, pH 7.4, 0.5 h
[16] = Prodrug activation in human HepG2 cells assessed as NO release by measuring red fluorescence at 20 uM treated for 15 mins by dRB-OPD staining based fluorescence microscopy; assay type: cell-based; settings: hepg2, 0.25 h
[17] = Prodrug activation in PBS at pH 7.4 assessed as GSH-induced NO release by measuring increase in fluorescence at 10 uM in presence of 1 mM GSH; settings: buffer, pH 7.4, 10 µM
[18] = Prodrug activation in PBS at pH 7.4 assessed as decrease in compound at 10 uM incubated upto 60 mins in presence of 1 mM GSH by LC-MS analysis; settings: buffer, pH 7.4, 1 h
BV-2 [19] = experiment: Neuroprotective activity against OGD-induced mouse BV2 cells assessed as morphological change at 1 to 4 uM incubated for 4 hrs by fluorescence microscopy; assay type: functional, cell-based; settings: dose 1-4 µM
[20] = Prodrug activation in zebrafish assessed as green fluorescence signal at 20 uM incubated for 20 mins by fluorescence microscopy; parameters: species or system Danio rerio
BV-2 [21] = experiment: Cytotoxicity against mouse BV-2 cells assessed as cell survival upto 2 uM incubated for 24 hrs by MTT assay; assay type: toxicity, cell-based; settings: bv-2, 24 h
[22] = Prodrug activation in PBS at pH 7.4 assessed as change in fluorescence signal at 10 uM incubated for 60 mins in presence of 1 mM cysteine by fluorescence based assay; settings: buffer, pH 7.4, 1 h
[23] = Prodrug activation in PBS at pH 7.4 assessed as GSH-induced NO release by measuring increase in fluorescence at 10 uM incubated for 60 mins in presence of 1 mM GSH by fluorescence based assay; settings: buffer, pH 7.4, 1 h
[24] = Prodrug activation in PBS at pH 6.5 to 9.0 at 10 uM incubated for 60 mins in presence of 1 mM GSH by fluorescence based assay; settings: buffer, pH 6.5, 1 h
[25] = Prodrug activation in zebrafish assessed as NO release by measuring red fluorescence signal at 20 uM incubated for 20 mins by dRB-OPD staining based fluorescence microscopy; parameters: species or system Danio rerio
BV-2 [26] = experiment: Neuroprotective activity against OGD-induced mouse BV2 cells assessed as increase in cell viability at 2 to 4 uM incubated for 4 hrs followed by reoxygenation by MTT assay; assay type: functional, cell-based; settings: dose 2-4 µM
Astrocyte = experiment: Cytotoxicity against astrocyte cells assessed as cell survival upto 2 uM incubated for 24 hrs by MTT assay; assay type: toxicity, cell-based
[27] = Prodrug activation in human HepG2 cells assessed as bis-thiol adduct by measuring green fluorescence at 20 uM treated for 15 mins by fluorescence microscopy; assay type: cell-based; settings: hepg2, 0.25 h
[28] = Prodrug activation in PBS assessed as amount of GSH-activated NO release at 17 uM in presence of 1 mM GSH by Griess assay; settings: buffer
[29] = Prodrug activation in PBS at pH 7.4 assessed as GSH bis-adduct at 10 uM incubated upto 60 mins in presence of 1 mM GSH by LC-MS analysis; settings: buffer, pH 7.4, 1 h
BV-2 [30] = experiment: Cytotoxicity against mouse BV2 cells assessed as cell survival at less than 4 uM incubated for 24 hrs by MTT assay; assay type: toxicity, cell-based; settings: bv-2, 24 h
[31] = Drug uptake in zebrafish embryo assessed as penetration depth at 20 uM treated for 20 mins by two-photon based fluorescence microscopy; assay type: ADME, Danio rerio; settings: in vivo
[32] = Prodrug activation in PBS at pH 7.4 assessed as change in fluorescence signal at 10 uM incubated for 60 mins in presence of 1 mM homocysteine by fluorescence based assay; settings: buffer, pH 7.4, 1 h
[33] = Drug uptake in mouse brain assessed as penetration depth at 1 mM treated for 2 hrs by two-photon based fluorescence microscopy; assay type: ADME, tissue-based; settings: in vivo, 1000 µM
[34] = Prodrug activation in PBS assessed as increase in GSH-activated NO release at 10 uM in presence of 1 mM GSH measured for 40 mins by Griess assay; settings: buffer

- Activity [1]: > 90%
- Retention_time [2]: 10.2 min
- Activity [3]: Active
- Retention_time [4]: 5.1 min
- Activity [5]: Active
- Retention_time [6]: 28.9 min
- Drug metabolism [7]: Metabolite_Detected
- Activity [8]: Active
- Stability [9]: > 60%
- Drug metabolism [10]: Metabolite_Detected
- Retention_time [11]: 28.9 min
- Retention_time [12]: 13.5 min
- Retention_time [13]: 5.1 min
- Retention_time [14]: 10.2 min
- Activity [15]: Active
Structure (SMILES): C=C(COC(=O)O[C@]1(CC)C(=O)OCc2c1cc1n(c2=O)Cc2cc3ccccc3nc2-1)C(=O)c1ccc2cc(N(C)C)ccc2c1

- Drug metabolism [16]: Metabolite_Detected
- Activity [17]: Active
- Activity [18]: Active
- Drug metabolism [20]: Metabolite_Detected
- Activity [22]: Active
- Activity [23]: Active
- Activity [24]: Active
- Drug metabolism [25]: Metabolite_Detected
- Drug metabolism [27]: Metabolite_Detected
- Activity [28]: 85%
- Activity [29]: Active
- Stability [9]: > 60%
- Drug metabolism [31]: Metabolite_Detected
- Activity [32]: Active
- Drug metabolism [33]: Metabolite_Detected
- Activity [34]: Active
Structure (SMILES): C=C(CO/N=[N+](/[O-])N1CCCC1)C(=O)c1ccc2cc(N(C)C)ccc2c1
- Activity (BV-2 [19]): Active
- Activity (BV-2 [21]): Non-Toxic
- Activity (BV-2 [26]): Active
- Activity (Astrocyte): Non-Toxic
- Activity (BV-2 [30]): Active

Source: ChEMBL document CHEMBL5154867, “Baylis-Hillman Adducts as a Versatile Module for Constructing Fluorogenic Release System” (J Med Chem, 2022)
